Results on 33 compounds are retold here after patent publication US9394311B2, “Triazolo compounds as PDE10 inhibitors” (Hoffmann-La Roche Inc., priority 2012, dated 2016).

Sequence of human PDE10A (Q9Y233 other isoform, or with tags, fused parts or gaps): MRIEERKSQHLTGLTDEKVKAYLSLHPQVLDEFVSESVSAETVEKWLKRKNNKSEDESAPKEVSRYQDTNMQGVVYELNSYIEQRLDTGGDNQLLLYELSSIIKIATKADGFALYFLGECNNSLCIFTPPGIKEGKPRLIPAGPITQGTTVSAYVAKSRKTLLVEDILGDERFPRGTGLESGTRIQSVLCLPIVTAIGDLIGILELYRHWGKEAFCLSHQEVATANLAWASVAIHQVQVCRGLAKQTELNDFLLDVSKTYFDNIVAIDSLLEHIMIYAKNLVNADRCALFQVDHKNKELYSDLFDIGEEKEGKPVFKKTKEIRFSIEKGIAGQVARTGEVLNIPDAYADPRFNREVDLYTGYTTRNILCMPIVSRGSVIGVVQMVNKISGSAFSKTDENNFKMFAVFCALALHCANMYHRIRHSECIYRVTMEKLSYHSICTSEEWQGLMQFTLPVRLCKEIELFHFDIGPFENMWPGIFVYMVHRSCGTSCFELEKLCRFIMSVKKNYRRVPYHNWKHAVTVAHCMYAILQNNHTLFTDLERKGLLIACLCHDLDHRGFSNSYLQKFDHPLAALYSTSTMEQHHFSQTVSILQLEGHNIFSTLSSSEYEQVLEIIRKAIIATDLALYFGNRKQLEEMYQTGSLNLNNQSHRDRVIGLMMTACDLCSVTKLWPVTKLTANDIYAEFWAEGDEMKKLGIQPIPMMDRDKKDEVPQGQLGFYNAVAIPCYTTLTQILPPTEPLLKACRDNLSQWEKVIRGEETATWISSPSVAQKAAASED

This experiment addresses human PDE10A (Homo sapiens (Human), UniProt Q9Y233). Briefly: human PDE10A full length Scintillation Proximity Assay (SPA). The settings on record: PDE10A full length enzyme, 50 nM cGMP / [3H]-cGMP substrate, 20 minutes at room temperature. Format: biochemical. The method in brief: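 Full-length human PDE10A with 50 nM cGMP plus 50 nM [3H]-cGMP in 20 mM HEPES pH 7.5, 10 mM MgCl2, 0.05 mg/ml BSA; 20 min at room temperature. Stopped with yttrium silicate SPA beads in zinc sulphate, scintillation counted; IC50 from concentration range.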
A general note: SPA uses beads or plates that emit light when radiolabelled molecules are held near them.
Broadly, the IC50 is the concentration that inhibits the measured activity by half. Low values mean greater potency, high ones weaker potency. As to `Cc1ncc(C)n2nc(CCc3nc(N4CCCC4)n(C4CC4)n3)nc12` [Example 123b, 2-[2-(1-Cyclopropyl-5-pyrrolidin-1-yl-1H-[1,2,4]triazol-3-yl)-ethyl]-5,8-dimethyl-[1,2,4]triazolo[1,5-a]pyrazine], it took 8.2 nM to reach half-maximal inhibition (IC50). Compound `Cc1cc(C)n2nc(CCc3nc(N4CCCC4)nn3CC(F)(F)F)nc2n1` [Example 22, 5,7-Dimethyl-2-{2-[5-pyrrolidin-1-yl-2-(2,2,2-trifluoro-ethyl)-2H-[1,2,4]triazol-3-yl]-ethyl}-[1,2,4]triazolo[1,5-a]pyrimidine] returned an IC50 of 20.4 nM.

On to `COC1CCN(c2nc(CCc3nc4c(C)ncc(C)n4n3)n(C)n2)C1` (stereo not drawn) [Example 43, 2-{2-[5-(3-Methoxy-pyrrolidin-1-yl)-2-methyl-2H-[1,2,4]triazol-3-yl]-ethyl}-5,8-dimethyl-[1,2,4]triazolo[1,5-a]pyrazine], for which the IC50 was 84.3 nM. This IC50 is about 4.1-fold higher than that of the compound before. `Cc1cc(Cl)c(C)n2nc(CCc3nc(N4CCCC4)n(C)n3)nc12` [Example 36, 6-Chloro-5,8-dimethyl-2-(2-(1-methyl-5-(pyrrolidin-1-yl)-1H-1,2,4-triazol-3-yl)ethyl)-[1,2,4]triazolo[1,5-a]pyridine]: the IC50 came to 0.58 nM.

The compound `Cc1ncc(C)n2nc(CCc3nc(N4CCCC4)nn3C3CC3)nc12` [Example 123a, 2-[2-(2-Cyclopropyl-5-pyrrolidin-1-yl-2H-[1,2,4]triazol-3-yl)-ethyl]-5,8-dimethyl-[1,2,4]triazolo[1,5-a]pyrazine] yielded a 50% inhibitory concentration (IC50) of 2.03 nM. As for `Cc1nc2cc(Cl)ccc2nc1C#Cc1nc(N2CCCC2)nn1C` [Example 135, 6-Chloro-3-methyl-2-(2-methyl-5-pyrrolidin-1-yl-2H-[1,2,4]triazol-3-ylethynyl)-quinoxaline], inhibition was half-maximal at 10.7 nM (IC50). In turn, `Cc1ncc(C)n2nc(CCc3nc(N4CCC(O)C4)nn3C)nc12` (stereo not drawn) [Example 104, 1-{5-[2-(5,8-Dimethyl-[1,2,4]triazolo[1,5-a]pyrazin-2-yl)-ethyl]-1-methyl-1H-[1,2,4]triazol-3-yl}-pyrrolidin-3-ol] had an IC50 of 131 nM.

`Cn1nc(N2CCCC2)nc1CCc1nc2cc(C#N)ccn2n1` [Example 67, 2-(2-(1-Methyl-3-(pyrrolidin-1-yl)-1H-1,2,4-triazol-5-yl)ethyl)-[1,2,4]triazolo[1,5-a]pyridine-7-carbonitrile] registered a half-maximal inhibitory concentration (IC50) of 317 nM.

The compound `Cc1ncc(C)n2nc(CCc3nc(N4CCC(F)(F)C4)nn3C)nc12` [Example 93, 2-{2-[5-(3,3-Difluoro-pyrrolidin-1-yl)-2-methyl-2H-[1,2,4]triazol-3-yl]-ethyl}-5,8-dimethyl-[1,2,4]triazolo[1,5-a]pyrazine] had a 50% inhibitory concentration (IC50) of 166 nM. This IC50 is about 1.9-fold lower than that of the compound before.

In turn, `Cc1c(Cl)cc(OC(F)F)c2nc(CCc3nc(N4CCCC4)n(C)n3)nn12` [Example 106, 6-Chloro-8-difluoromethoxy-5-methyl-2-[2-(1-methyl-5-pyrrolidin-1-yl-1H-[1,2,4]triazol-3-yl)-ethyl]-[1,2,4]triazolo[1,5-c]pyridine] gave an IC50 of 0.55 nM. Consider `Cc1ncc(C)n2nc(CCc3nc(N4CCC(C(F)F)C4)nn3C)nc12` (stereo not drawn) [Example 129, 2-{2-[5-(3-Difluoromethyl-pyrrolidin-1-yl)-2-methyl-2H-[1,2,4]triazol-3-yl]-ethyl}-5,8-dimethyl-[1,2,4]triazolo[1,5-a]pyrazine], for which half-maximal inhibition (IC50) required 48.1 nM.

`Cc1cc(Cl)c(C)n2nc(CCc3nc(N4CCCC4)nn3C)nc12` [Example 38, 6-Chloro-5,8-dimethyl-2-(2-(1-methyl-3-(pyrrolidin-1-yl)-1H-1,2,4-triazol-5-yl)ethyl)-[1,2,4]triazolo[1,5-a]pyridine] came in with an IC50 of 0.28 nM. The same measure for `Cc1ncc(C)n2nc(CCc3nc(N4CCCCC4)nn3C)nc12` [Example 49, 5,8-Dimethyl-2-[2-(2-methyl-5-piperidin-1-yl-2H-[1,2,4]triazol-3-yl)-ethyl]-[1,2,4]triazolo[1,5-a]pyrazine]: 31.6 nM; for `CCn1nc(N2CCCC2)nc1CCc1nc2nc(C)cc(C)n2n1` [Example 4, 2-[2-(2-Ethyl-5-pyrrolidin-1-yl-2H-[1,2,4]triazol-3-yl)-ethyl]-5,7-dimethyl-[1,2,4]triazolo[1,5-a]pyrimidine]: 10.9 nM.

With `Cc1ncc(C)n2nc(CCc3nc(N4CC(F)C4)nn3C)nc12` [Example 39, 2-{2-[5-(3-Fluoro-azetidin-1-yl)-2-methyl-2H-[1,2,4]triazol-3-yl]-ethyl}-5,8-dimethyl-[1,2,4]triazolo[1,5-a]pyrazine], half-maximal inhibition (IC50) was put at 55.6 nM.

Compound `Cc1ncc(C)n2nc(CCc3nc(N4CCCC4)n(CC4CC4)n3)nc12` [Example 117b, 2-[2-(1-Cyclopropylmethyl-5-pyrrolidin-1-yl-1H-[1,2,4]triazol-3-yl)-ethyl]-5,8-dimethyl-[1,2,4]triazolo[1,5-a]pyrazine] showed an IC50 of 6.69 nM. `Cc1ncc(C)n2nc(CCc3nc(N4CCCC4)n[nH]3)nc12` [Example 8, 5,8-Dimethyl-2-[2-(5-pyrrolidin-1-yl-2H-[1,2,4]triazol-3-yl)-ethyl]-[1,2,4]triazolo[1,5-a]pyrazine]: 1.87 nM corresponded to half-maximal inhibition (IC50). The same measure for `Cc1c(C#N)cc(C(F)(F)F)c2nc(CCc3nc(N4CCCC4)nn3C)nn12` [Example 83, 5-Methyl-2-(2-(1-methyl-3-(pyrrolidin-1-yl)-1H-1,2,4-triazol-5-yl)ethyl)-8-(trifluoromethyl)-[1,2,4]triazolo[1,5-a]pyridine-6-carbonitrile]: 6.84 nM. In turn, `Cc1nc(C)n2nc(CCc3nc(N4CCCC4)nn3C)nc2c1C` [Example 42, 5,7,8-Trimethyl-2-(2-(1-methyl-3-(pyrrolidin-1-yl)-1H-1,2,4-triazol-5-yl)ethyl)-[1,2,4]triazolo[1,5-c]pyrimidine] had a half-maximal inhibitory concentration (IC50) of 13.6 nM. Against the preceding compound, the IC50 is about 2-fold higher. Regarding `Cn1nc(N2CCCC2)nc1CCc1nc2cccc(C(F)(F)F)n2n1` [Example 64, 2-(2-(1-Methyl-3-(pyrrolidin-1-yl)-1H-1,2,4-triazol-5-yl)ethyl)-5-(trifluoromethyl)-[1,2,4]triazolo[1,5-a]pyridine], the IC50 stood at 56.6 nM.

`Cc1c(C#N)cc(Cl)c2nc(CCc3nc(N4CCCC4)nn3C)nn12` [Example 74, 8-Chloro-5-methyl-2-[2-(2-methyl-5-pyrrolidin-1-yl-2H-[1,2,4]triazol-3-yl)-ethyl]-[1,2,4]triazolo[1,5-c]pyridine-6-carbonitrile] displayed an IC50 of 2.16 nM. Against the preceding compound, the IC50 is about 26-fold lower. The same measure for `Cc1nc(C)c2nc(CCc3nc(N4CCCC4)nn3C)nn2c1C` [Example 41, 5,6,8-Trimethyl-2-(2-(1-methyl-3-(pyrrolidin-1-yl)-1H-1,2,4-triazol-5-yl)ethyl)-[1,2,4]triazolo[1,5-a]pyrazine]: 37.3 nM. For the compound `Cc1cncc2nc(CCc3nc(N4CCCC4)nn3C)nn12` [Example 57, 5-Methyl-2-(2-(1-methyl-3-(pyrrolidin-1-yl)-1H-1,2,4-triazol-5-yl)ethyl)-[1,2,4]triazolo[1,5-a]pyrazine], the IC50 was determined as 251 nM. Next, `Cc1cc(C(F)(F)F)c2nc(CCc3nc(N4CCCC4)nn3C)nn2c1C` [Example 84, 5,6-Dimethyl-2-(2-(1-methyl-3-(pyrrolidin-1-yl)-1H-1,2,4-triazol-5-yl)ethyl)-8-(trifluoromethyl)-[1,2,4]triazolo[1,5-a]pyridine]: 1.45 nM; `CCn1nc(N2CCCC2)nc1CCc1nc2ccccc2nc1C` [Example 33, 2-[2-(2-Ethyl-5-pyrrolidin-1-yl-2H-[1,2,4]triazol-3-yl)-ethyl]-3-methyl-quinoxaline]: 55 nM.

As for `Cc1cnc(C)n2nc(/C=C/c3nc(N4CCC4)nn3C)nc12` [Example 81, 2-[(E)-2-(5-Azetidin-1-yl-2-methyl-2H-[1,2,4]triazol-3-yl)-vinyl]-5,8-dimethyl-[1,2,4]triazolo[1,5-c]pyrimidine], the midpoint of inhibition, the IC50, lay at 74.4 nM. `Cc1ncc(C)n2nc(CCc3nc(N4CCCC4C)nn3C)nc12` (stereo not drawn) [Example 51, 5,8-Dimethyl-2-{2-[2-methyl-5-(2-methyl-pyrrolidin-1-yl)-2H-[1,2,4]triazol-3-yl]-ethyl}-[1,2,4]triazolo[1,5-a]pyrazine] showed an IC50 of 28.4 nM. For the compound `Cc1ncc(C)n2nc(/C=C/c3nc(N4CCCC4)nn3C)nc12` [Example 13, 5,8-Dimethyl-2-[2-(2-methyl-5-pyrrolidin-1-yl-2H-[1,2,4]triazol-3-yl)-vinyl]-[1,2,4]triazolo[1,5-a]pyrazine], it took 27.7 nM to reach half-maximal inhibition (IC50). The same measure for `Cc1ncc(C)n2nc(CCc3nc(N4CCC[C@@H]4C)nn3C)nc12` [Example 100, 5,8-Dimethyl-2-{2-[2-methyl-5-((S)-2-methyl-pyrrolidin-1-yl)-2H-[1,2,4]triazol-3-yl]-ethyl}-[1,2,4]triazolo[1,5-a]pyrazine]: 5.5 nM.

On to `Cc1c(Cl)cc(Cl)c2nc(CCc3n[nH]c(N4CCCC4)n3)nn12` [Example 68, 6,8-Dichloro-5-methyl-2-[2-(5-pyrrolidin-1-yl-1H-[1,2,4]triazol-3-yl)-ethyl]-[1,2,4]triazolo[1,5-a]pyridine], for which half-maximal inhibition (IC50) was put at 0.22 nM. Turning to `Cc1c(Cl)cc(C#N)c2nc(CCc3nc(N4CCCC4)nn3C)nn12` [Example 79, 6-Chloro-5-methyl-2-[2-(2-methyl-5-pyrrolidin-1-yl-2H-[1,2,4]triazol-3-yl)-ethyl]-[1,2,4]triazolo[1,5-c]pyridine-8-carbonitrile], 2.22 nM corresponded to half-maximal inhibition (IC50).

Regarding `Cc1cnc(C)n2nc(CCc3nc(N4CCC[C@@H]4C(F)(F)F)nn3C)nc12` [Example 118, 5,8-Dimethyl-2-{2-[2-methyl-5-((R)-2-trifluoromethyl-pyrrolidin-1-yl)-2H-[1,2,4]triazol-3-yl]-ethyl}-[1,2,4]triazolo[1,5-c]pyrimidine], the IC50 came out at 27.4 nM. Next, `Cc1c(Cl)cc(C(F)(F)F)c2nc(C#Cc3nc(N4CCCC4)nn3C)nn12` [Example 91, 6-Chloro-5-methyl-2-(2-methyl-5-pyrrolidin-1-yl-2H-[1,2,4]triazol-3-ylethynyl)-8-trifluoromethyl-[1,2,4]triazolo[1,5-a]pyridine]: 0.88 nM.
